# Test results reported in the NIST ThermoML archive (doi:10.1021/je800600q).
# ± gives the expanded uncertainty stated by the source.
# Conditions: Crystal; DTA
smiles,measurement,value
CCc1occc(=O)c1O [2-ethyl-3-hydroxy-4H-pyran-4-one],Normal melting temperature,91.02 ± 0.5 °C
